Reference: article PMC3650558, “A Yeast Chemical Genetic Screen Identifies Inhibitors of Human Telomerase” (Chemistry & Biology, 2013)
Entries after “also recorded” stand apart in the source; their conditions may differ.

How the values were obtained:
[1] = system: pdr1DBD-cyc8 strain; test: Growth of hyperpermeable yeast strain; details: 0.03-1 μM, irrespective of human telomerase expression status
[2] = system: W303-1a cells expressing Cdc13-hTERT-FLAG + hTR (active human telomerase); test: Yeast growth rescue screen (time to reach OD595 of 0.62 relative to DMSO); assay type: cell-based, S. cerevisiae; details: for Z Score: z = (x − μ)/σ of normalized time difference over all compounds in the bioactive library
Protocol: These 678 compounds were selected from a 50,000 member Maybridge library based upon a spectrum of growth inhibitory bioactivity in a drug pump-deficient yeast strain ([Ishizaki et al., 2010]). […] In each 96-well assay plate, growth of the query strain in the presence of compound (20 μM), beginning at the onset of the experimental growth phase (i.e., time course 2, from 43 hr onward), was normalized against DMSO treatment (Figures 2C and 2D; Figures S2D and S2E).
To conduct the HTS (Figure 2A), 98 μl (3 × 10^5 cells per milliliter) was dispensed into 96-well clear flat-bottomed microplates (Corning Costar) using a Biomek FX (Beckman Coulter). A small molecule bioactive library of 678 compounds was utilized for the screen, consisting of compounds selected from the Maybridge collection (Thermo Fisher Scientific). […] DMSO at 2% (v/v) and 20 μM cycloheximide (Sigma) final concentration were added as controls to each assay plate, into alternate wells in columns 1 and 12 using the Span 8 module of the Biomek FX. Nine plates were analyzed, 80 compounds per plate, with 16 wells for controls. After compound addition, the plates were sealed and followed for time course 1 (up to 39 hr) on a Sunrise plate reader (Tecan) at absorbance 595 nm, maintained at 30°C and shaking at 564 rpm. After time course 1, cells in assay plates were diluted to 3 × 10^5 cells per milliliter in fresh media containing galactose using the Biomek FX. The plates were preincubated in galactose-containing media at 30°C for 3 hr (to allow a period of recovery from the stationary phase in the absence of compound), 2 μl of each compound or control was added to plates as described earlier, returned to the plate readers, and followed for time course 2 (up to 86 hr), for a total of ∼128 elapsed hours.
Growth curves were analyzed using a growth curve analysis tool implemented in R. After smoothing of growth curves, the time required for cells induced with human telomerase to reach an OD595 of 0.62 in the presence of each compound during time course 2 was derived using a data-based approach ([Warringer and Blomberg, 2003]). The time to reach an OD595 of 0.62 for each compound was normalized to the average DMSO value from each assay plate (to arrive at a normalized value, x, for each compound) and used to generate heatmaps as shown in Figure 2C. Z scores were calculated based on the equation: z = (x − μ)/σ, where μ is the mean time difference for all compounds in the bioactive library and σ is the SD for all compounds in the bioactive library.

[3] = system: W303-1a control strains; test: Growth of control yeast strains; assay type: cell-based, S. cerevisiae; details: W303-1a cells alone; 500, 150, 50, 10 or 1 μM
[4] = target: purified human telomerase; set-up: method as in Damm et al., 2001; Pascolo et al., 2002; details: human telomerase in vitro; ref Damm et al., 2001; Pascolo et al., 2002; cited from earlier work
[5] = target: T1, telomerase activity in crude HeLa cell extracts (Homo sapiens, UniProt O14746); test: TRAP assay in crude HeLa cell extracts; assay type: biochemical
T1 construct: telomerase activity in crude HeLa cell extracts; endogenous in cells; host or cells: HeLa
Protocol: As a control, we observed no inhibition of the Taq polymerase used for amplification of telomerase extension products in the TRAP (data not shown). In addition, as negative controls, two other compounds that were not identified as hits (SPB03922 and RH00646) were tested and confirmed to exert no effect upon telomerase activity in vitro (Figure 3B). Using a semiquantitative assay for the detection of telomerase elongation products (ELISA-TRAP) the in vitro half maximal inhibitory concentration (IC50) values of the compounds fell between 1 and 6.5 μM (Figures 3C and 3D). Similar IC50 values were also observed against purified recombinant murine telomerase (data not shown). These values are higher than that of BIBR1532 (IC50 = 0.1 μM) ([Damm et al., 2001]; [Pascolo et al., 2002]) but within a concentration range typical of first hits from commercial libraries. SEW05920, SPB03924, and CD11359 are heteroaromatic small molecules that differ structurally from BIBR1532 (Figures 3A and S2F).
Supplemental Experimental Procedures
Follow-up analysis of compounds identified in HTS
From the high-throughput analysis, 51 compounds with a neutral effect or that rescued the growth of strains expressing active human telomerase (relative to DMSO) were picked from the master HTS plates and re-analyzed (Figure 2C, and data not shown). These compounds were tested on a control strain, W303-1a expressing hTR and Cdc13-hTERT lacking the Cdc13 DBD, and 7 compounds were excluded from further analysis because they elicited a non-specific growth delay of the control strain. The remaining 44 compounds were subjected to secondary screens against the query strain expressing active human telomerase (n=2). Based on these results, twenty-eight compounds were purchased for further verification against the control and […]
(§1) Telomerase activity was assessed using the Telomere Repeat Amplification Protocol (TRAPeze, Millipore) or ELISA-TRAP (TeloTAGGG Telomerase PCR ELISA-PLUS, Roche Diagnostics) following manufacturers’ instructions. […]

[6] = target: T2, purified recombinant human telomerase (Homo sapiens, UniProt O14746); test: Telomerase repeat amplification protocol (TRAP) assay, purified enzyme; assay type: biochemical; details: 200, 100, 20, 10 or 2 μM; 15 min preincubation
T2 construct: made in house
Protocol: Figure 3 Assessment of Human Telomerase Inhibition In Vitro (A) Chemical structures of BIBR1532 and hit compounds SEW05920, SPB03924, and CD11359. (B) Representative gel of the telomerase repeat addition protocol (TRAPeze, Millipore) after addition of RJC00417, SEW05920, SPB03922, and RH00646 to recombinant human telomerase purified in vitro ([Beattie et al., 1998]; [Oulton and Harrington, 2004]) (n = 3). Lanes 1–5, treatment with 200, 100, 20, 10, or 2 μM RJC00417; lanes 6–10, treatment with 200, 100, 20, 10, or 2 μM SEW05920; lanes 11–15, treatment with 200, 100, 20, 10, or 2 μM SPB03922; lanes 16–20, treatment with 200, 100, 20, 10, or 2 μM RH00646; lane 21, treatment with 2% v/v DMSO; lane 22, pretreatment with ribonuclease A. IC; internal PCR control (36 base pairs [bp]). (C) Representative gel of the relative telomerase activity (RTA) by ELISA-TRAP (TeloTAGGG Telomerase PCR ELISA-PLUS, Roche Diagnostics) of purified human telomerase upon incubation with BIBR1532 (lanes 1–4), SEW05920 (lanes 5–8), SPB03924 (lanes 11–14), CD11359 (lanes 15–18) (concentration indicated in micromolar), 2% v/v DMSO (lane 9), or heat (lane 10). IC; internal PCR control (216 bp). (D) Levels of RTA (%) after normalization to a 216 bp internal control, as shown in (C). Error bars indicate SD, n = 3. For synthesis of BIBR1532, see Figure S2.
As a control, we observed no inhibition of the Taq polymerase used for amplification of telomerase extension products in the TRAP (data not shown). […]
From the high-throughput analysis, 51 compounds with a neutral effect or that rescued the growth of strains expressing active human telomerase (relative to DMSO) were picked from the master HTS plates and re-analyzed (Figure 2C, and data not shown). […]
as §1

T1 sequence (O14746 whole entry): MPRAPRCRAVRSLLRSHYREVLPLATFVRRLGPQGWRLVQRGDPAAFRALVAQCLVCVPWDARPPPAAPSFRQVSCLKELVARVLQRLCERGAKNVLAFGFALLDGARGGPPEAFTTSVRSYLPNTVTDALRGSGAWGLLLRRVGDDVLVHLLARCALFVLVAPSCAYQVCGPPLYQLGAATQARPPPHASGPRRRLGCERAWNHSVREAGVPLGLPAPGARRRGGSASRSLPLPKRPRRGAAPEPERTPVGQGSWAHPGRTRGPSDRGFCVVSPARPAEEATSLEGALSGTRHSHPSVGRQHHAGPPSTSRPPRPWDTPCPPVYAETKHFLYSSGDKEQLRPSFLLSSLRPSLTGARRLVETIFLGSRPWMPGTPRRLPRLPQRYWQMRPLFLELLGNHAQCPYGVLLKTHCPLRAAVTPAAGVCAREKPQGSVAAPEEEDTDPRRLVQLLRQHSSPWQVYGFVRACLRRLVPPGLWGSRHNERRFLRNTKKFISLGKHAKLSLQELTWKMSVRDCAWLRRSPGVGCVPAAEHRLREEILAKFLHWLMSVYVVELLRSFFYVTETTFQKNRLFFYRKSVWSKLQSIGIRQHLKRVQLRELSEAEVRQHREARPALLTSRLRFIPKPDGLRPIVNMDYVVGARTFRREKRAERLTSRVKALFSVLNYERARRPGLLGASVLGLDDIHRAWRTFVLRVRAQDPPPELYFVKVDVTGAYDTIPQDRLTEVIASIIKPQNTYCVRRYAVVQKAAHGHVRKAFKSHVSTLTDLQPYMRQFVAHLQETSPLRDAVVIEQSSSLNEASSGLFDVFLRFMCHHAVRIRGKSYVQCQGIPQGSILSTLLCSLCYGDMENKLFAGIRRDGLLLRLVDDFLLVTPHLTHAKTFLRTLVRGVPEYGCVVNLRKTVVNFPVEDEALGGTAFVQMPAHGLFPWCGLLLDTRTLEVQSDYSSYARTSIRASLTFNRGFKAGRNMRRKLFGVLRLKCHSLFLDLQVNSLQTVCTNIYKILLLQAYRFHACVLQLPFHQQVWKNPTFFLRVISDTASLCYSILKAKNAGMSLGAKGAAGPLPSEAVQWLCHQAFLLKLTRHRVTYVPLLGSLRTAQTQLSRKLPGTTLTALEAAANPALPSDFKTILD
T1 sequence (O60832 whole entry partner): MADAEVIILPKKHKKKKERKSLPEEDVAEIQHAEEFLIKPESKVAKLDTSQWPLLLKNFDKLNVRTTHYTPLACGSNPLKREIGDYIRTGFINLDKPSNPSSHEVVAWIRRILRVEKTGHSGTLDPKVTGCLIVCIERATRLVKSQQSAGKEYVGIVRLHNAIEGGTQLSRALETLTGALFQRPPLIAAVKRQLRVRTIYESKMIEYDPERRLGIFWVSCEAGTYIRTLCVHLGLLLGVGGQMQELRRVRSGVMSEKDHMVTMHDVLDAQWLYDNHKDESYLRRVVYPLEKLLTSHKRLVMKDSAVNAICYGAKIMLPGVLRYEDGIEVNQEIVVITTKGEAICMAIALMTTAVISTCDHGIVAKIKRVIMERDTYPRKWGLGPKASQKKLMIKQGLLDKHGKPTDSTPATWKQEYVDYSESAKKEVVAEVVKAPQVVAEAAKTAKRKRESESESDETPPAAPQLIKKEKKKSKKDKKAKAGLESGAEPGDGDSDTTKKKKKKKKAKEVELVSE
T1 sequence (Q9NPE3 whole entry partner): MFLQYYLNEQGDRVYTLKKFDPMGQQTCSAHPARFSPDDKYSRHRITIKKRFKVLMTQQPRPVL
T1 sequence (Q9NX24 whole entry partner): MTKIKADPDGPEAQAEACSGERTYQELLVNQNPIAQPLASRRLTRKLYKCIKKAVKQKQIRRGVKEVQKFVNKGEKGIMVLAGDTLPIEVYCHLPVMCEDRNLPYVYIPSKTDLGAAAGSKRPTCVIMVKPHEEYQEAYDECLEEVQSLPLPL
T1 sequence (Q9NY12 whole entry partner): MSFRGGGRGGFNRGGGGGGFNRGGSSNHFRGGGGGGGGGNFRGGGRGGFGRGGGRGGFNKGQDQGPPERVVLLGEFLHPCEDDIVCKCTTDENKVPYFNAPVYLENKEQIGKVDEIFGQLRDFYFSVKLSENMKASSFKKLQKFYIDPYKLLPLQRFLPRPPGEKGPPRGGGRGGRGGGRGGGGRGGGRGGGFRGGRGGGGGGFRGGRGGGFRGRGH
T1 sequence (Q9BUR4 whole entry partner): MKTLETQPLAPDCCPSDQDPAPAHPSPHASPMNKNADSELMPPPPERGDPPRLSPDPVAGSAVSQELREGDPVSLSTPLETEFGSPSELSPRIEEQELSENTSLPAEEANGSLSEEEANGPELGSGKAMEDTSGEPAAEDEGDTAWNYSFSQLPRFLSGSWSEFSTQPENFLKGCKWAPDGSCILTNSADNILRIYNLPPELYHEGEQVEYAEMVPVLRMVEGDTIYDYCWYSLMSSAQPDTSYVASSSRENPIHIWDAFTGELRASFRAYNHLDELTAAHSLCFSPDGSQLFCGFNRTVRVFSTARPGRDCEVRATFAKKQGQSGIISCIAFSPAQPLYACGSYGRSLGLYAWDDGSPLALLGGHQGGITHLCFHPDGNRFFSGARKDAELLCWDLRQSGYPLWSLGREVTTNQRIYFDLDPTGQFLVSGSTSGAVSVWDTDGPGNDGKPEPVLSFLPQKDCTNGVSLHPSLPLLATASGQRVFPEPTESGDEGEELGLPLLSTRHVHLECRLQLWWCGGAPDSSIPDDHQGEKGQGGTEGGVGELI
T2 sequence (O14746 whole entry): as the sequence (O14746 whole entry) above

Row | SMILES | toxicity in hyperpermeable strain pdr1DBD-cyc8 [1] | effect upon growth of yeast expressing human telomerase ([2]; 500, 150, 50, 10 or 1 μM) | effect upon growth of control strains [3] | IC50 [4] [nM] | Z Score [2] | inhibition of telomerase activity in crude HeLa cell extracts (TRAP) [5] | inhibition of purified recombinant human telomerase (TRAP) [6] | growth recovery in follow-up screens ([2]; follow-up subscreens, re-plated from master HTS plate and repurchased compound) [h] | growth recovery in the initial HTS ([2]; initial HTS, 20 μM) | Time (hr) Difference at an OD595 of 0.62 Relative to DMSO ([2]; compound 20 μM, time course 2, growth rescue of strain expressing active human telomerase) [h]
1 | C/C(=C\C(=O)Nc1ccccc1C(=O)O)c1ccc2ccccc2c1 [BIBR1532, 2-[(E)-3-naphthalen-2-yl-but-2-enoylamino]-benzoic acid] | toxic; also recorded: cytotoxic across most concentrations | had no effect | had no effect | 100 |  |  |  |  |  | 
2 | N=C(N)Nc1nc(-c2cc(Cl)sc2Cl)cs1 [CD11359] |  |  |  |  | 1.7 | dose-dependent inhibition | dose-dependent inhibition |  |  | 
3 | Cc1ccc(S(=O)(=O)NC(=O)Nc2ccc(Sc3ccccc3)nc2Sc2ccccc2)cc1 [SEW05920] |  |  |  |  | 1.7 | dose-dependent inhibition | inhibited telomerase activity in vitro; also recorded: dose-dependent inhibition | ~8 | did not exhibit significant growth recovery | 
4 | Cc1cc(C(=O)O/N=C(\N)CSc2ncccc2C(F)(F)F)no1 [SPB03924] |  |  |  |  | 2.3 | dose-dependent inhibition | dose-dependent inhibition |  |  | 12
